Data from ChEMBL document CHEMBL1817634, “One-pot synthesis of pyrazoline derivatised carbazoles as antitubercular, anticancer agents, their DNA cleavage and antioxidant activities” (2011).
Values after ≈ are worked out from the molar mass of the structure shown. Active and inactive are the calls of the source. The rule behind the calls is not given here.

Assays:
A549 [1] = experiment: Cytotoxicity against human A549 cells; type: functional
A498 [2] = experiment: Anticancer activity against human A498 cells assessed as cell growth at 80 ug/mL by sulforhodamine B assay; type: functional; settings: read-out: Activity
[3] = Antioxidant activity assessed as potassium ferric cyanide reducing power at 50 ug after 20 mins by spectrophotometry; type: functional
A549 [4] = experiment: Anticancer activity against human A549 cells assessed as cell growth at 10 ug/mL by sulforhodamine B assay; type: functional; settings: read-out: Activity
[5] = Antioxidant activity assessed as potassium ferric cyanide reducing power at 10 ug after 20 mins by spectrophotometry; type: functional
[6] = Antioxidant activity assessed as potassium ferric cyanide reducing power at 100 ug after 20 mins by spectrophotometry; type: functional
A498 [7] = experiment: Anticancer activity against human A498 cells assessed as cell growth at 40 ug/mL by sulforhodamine B assay; type: functional; settings: read-out: Activity
A498 [8] = experiment: Anticancer activity against human A498 cells assessed as cell growth at 10 ug/mL by sulforhodamine B assay; type: functional; settings: read-out: Activity
Nucleic Acid = experiment: Induction of Escherichia coli DNA cleavage at 100 ug after 2 hrs by agarose gel electrophoresis; type: nucleic-acid assay
A498 [9] = experiment: Cytotoxicity against human A498 cells; type: functional
[10] = test system: Mycobacterium tuberculosis; experiment: Antitubercular activity against Mycobacterium tuberculosis H37Rv after 3 weeks by turbidity assay; type: functional; settings: 504 h
A549 [11] = experiment: Anticancer activity against human A549 cells assessed as cell growth at 80 ug/mL by sulforhodamine B assay; type: functional; settings: read-out: Activity
A549 [12] = experiment: Anticancer activity against human A549 cells assessed as cell growth at 20 ug/mL by sulforhodamine B assay; type: functional; settings: read-out: Activity
A498 [13] = experiment: Anticancer activity against human A498 cells assessed as cell growth at 20 ug/mL by sulforhodamine B assay; type: functional; settings: read-out: Activity
A549 [14] = experiment: Anticancer activity against human A549 cells assessed as cell growth at 40 ug/mL by sulforhodamine B assay; type: functional; settings: read-out: Activity

| SMILES | GI50 (A549 [1]) [µg/mL] | LC50 (A549 [1]) [µg/mL] | TGI (A549 [1]) [µg/mL] | growth at 80 µg/mL (A498 [2]) [%] | reducing power [3] [absorbance] | growth at 10 µg/mL (A549 [4]) [%] | reducing power [5] [absorbance] | reducing power [6] [absorbance] | growth at 40 µg/mL (A498 [7]) [%] | growth at 10 µg/mL (A498 [8]) [%] | Activity (Nucleic Acid) | GI50 (A498 [9]) [µg/mL] | LC50 (A498 [9]) [µg/mL] | TGI (A498 [9]) [µg/mL] | MIC [10] [µg/mL] | growth at 80 µg/mL (A549 [11]) [%] | growth at 20 µg/mL (A549 [12]) [%] | growth at 20 µg/mL (A498 [13]) [%] | growth at 40 µg/mL (A549 [14]) [%] |
| --- | --- | --- | --- | --- | --- | --- | --- | --- | --- | --- | --- | --- | --- | --- | --- | --- | --- | --- | --- |
| Oc1ccc(C2CC(c3ccc4[nH]c5c(c4c3)CCCC5)=NN2)cc1 (stereo not drawn) | 76.5 (≈ 231 µM) | > 70 | > 70 | 3.9 | 0.14 | 83.2 | 0.125 | 0.25 | 83 | 83 | inactive | 74.5 (≈ 225 µM) | > 70 | > 70 | 3.5 (≈ 10.6 µM) | 11.5 | 74.6 | 86 | 67.1 |
| C(=C\C1CC(c2ccc3[nH]c4c(c3c2)CCCC4)=NN1)/c1ccccc1 (stereo not drawn) | 54 (≈ 158 µM) | > 80 | > 80 | 6 | 0.47 | 98.8 | 0.19 | 0.67 | 95.7 | 99.5 | inactive | 57 (≈ 167 µM) | > 80 | > 80 | 25 (≈ 73.2 µM) | 48.7 | 94.8 | 99.7 | 88.4 |
| COc1cccc2c1C(=O)c1c(O)c3c(c(O)c1C2=O)C[C@@](O)(C(=O)CO)C[C@@H]3O[C@H]1C[C@H](N)[C@H](O)[C@H](C)O1 [DOXORUBICIN] | < 10 | – | 41.3 (≈ 76 µM) | -66.9 | – | 10.7 | – | – | -39.5 | 10.7 | – | < 10 | – | 32.4 (≈ 59.6 µM) | – | -66.9 | 8.2 | 8.2 | -39.5 |
| Clc1ccccc1C1CC(c2ccc3[nH]c4c(c3c2)CCCC4)=NN1 (stereo not drawn) | 51.6 (≈ 147 µM) | > 80 | > 80 | 16.2 | 0.121 | 90.2 | 0.004 | 0.295 | 97.4 | 100 | inactive | 62 (≈ 177 µM) | > 80 | > 80 | 5 (≈ 14.3 µM) | 12.1 | 81.6 | 100 | 75.7 |
| CN[C@@H]1[C@H](O[C@H]2[C@H](O[C@H]3[C@H](O)[C@@H](O)[C@H](N=C(N)N)[C@@H](O)[C@@H]3N=C(N)N)O[C@@H](C)[C@]2(O)C=O)O[C@@H](CO)[C@H](O)[C@H]1O [STREPTOMYCIN] | – | – | – | – | – | – | – | – | – | – | – | – | – | – | 7.5 (≈ 12.9 µM) | – | – | – | – |
| CC1CC(c2ccc3[nH]c4c(c3c2)CCCC4)=NN1 (stereo not drawn) | 52.5 (≈ 207 µM) | > 70 | > 70 | 4 | 0.105 | 90.2 | 0.02 | 0.13 | 85 | 80 | inactive | 55.2 (≈ 218 µM) | > 70 | > 70 | 3.5 (≈ 13.8 µM) | 12.1 | 81.6 | 82 | 75.7 |
| COc1ccc(C2CC(c3ccc4[nH]c5c(c4c3)CCCC5)=NN2)cc1 (stereo not drawn) | 56.2 (≈ 163 µM) | > 80 | > 80 | 4.2 | 0.473 | 81.6 | 0.193 | 0.673 | 97.7 | 98.3 | inactive | 55 (≈ 159 µM) | > 80 | > 80 | 10 (≈ 28.9 µM) | 15.3 | 76.2 | 100 | 69.4 |
| O=[N+]([O-])c1ccc(C2CC(c3ccc4[nH]c5c(c4c3)CCCC5)=NN2)cc1 (stereo not drawn) | 38.2 (≈ 106 µM) | > 80 | > 80 | 4.1 | 0.475 | 70.1 | 0.195 | 0.675 | 97.7 | 100 | Active | 56.2 (≈ 156 µM) | > 80 | > 80 | 10 (≈ 27.7 µM) | 4.2 | 64.4 | 100 | 50.4 |
| NC(=O)c1cnccn1 [PYRAZINAMIDE] | – | – | – | – | – | – | – | – | – | – | – | – | – | – | 10 (≈ 81.2 µM) | – | – | – | – |
| Cc1ccc(C2CC(c3ccc4[nH]c5c(c4c3)CCCC5)=NN2)cc1 (stereo not drawn) | 74.3 (≈ 226 µM) | > 80 | > 80 | 4.6 | 0.11 | 11.9 | 0.05 | 0.17 | 96.2 | 99.3 | inactive | 54 (≈ 164 µM) | > 80 | > 80 | 12 (≈ 36.4 µM) | -28.4 | -2.9 | 99.2 | -18.5 |
| Clc1cccc(C2CC(c3ccc4[nH]c5c(c4c3)CCCC5)=NN2)c1 (stereo not drawn) | 49.8 (≈ 142 µM) | > 80 | > 80 | 33.5 | 0.066 | 81.6 | 0.015 | 0.147 | 97.9 | 100 | inactive | 74.3 (≈ 212 µM) | > 80 | > 80 | 4.5 (≈ 12.9 µM) | 15.3 | 76.2 | 100 | 69.4 |
| Clc1ccc(C2CC(c3ccc4[nH]c5c(c4c3)CCCC5)=NN2)cc1 (stereo not drawn) | 47.6 (≈ 136 µM) | > 80 | > 80 | 31.7 | 0.191 | 83.2 | 0.011 | 0.303 | 97.5 | 100 | Active | 72.7 (≈ 208 µM) | > 80 | > 80 | 3.5 (≈ 10 µM) | 11.5 | 74.6 | 100 | 67.1 |
| Oc1ccccc1C1CC(c2ccc3[nH]c4c(c3c2)CCCC4)=NN1 (stereo not drawn) | 75.7 (≈ 228 µM) | > 70 | > 70 | 16.5 | 0.137 | 11.9 | 0.118 | 0.246 | 97.7 | 99.3 | inactive | 62.3 (≈ 188 µM) | > 80 | > 80 | 4.5 (≈ 13.6 µM) | -28.4 | -2.9 | 99.5 | -18.5 |
| c1ccc(C2CC(c3ccc4[nH]c5c(c4c3)CCCC5)=NN2)cc1 (stereo not drawn) | > 80 | > 80 | > 80 | 3.9 | 0.102 | 98.8 | 0.01 | 0.126 | 95.9 | 100 | inactive | 55.6 (≈ 176 µM) | > 80 | > 80 | 12 (≈ 38 µM) | 48.7 | 94.8 | 99.1 | 88.4 |
